Experimental data taken from ChEMBL document CHEMBL6083286, “Discovery of ERD-12310A as an Exceptionally Potent and Orally Efficacious PROTAC Degrader of Estrogen Receptor α (ERα)” (J Med Chem, 2024).
Active and inactive are the calls of the source. The rule behind the calls is not given here.

Columns and labels:
[1] = molecular target: T1, Protein cereblon/Estrogen receptor (Homo sapiens, UniProt P03372+Q96SW2); test: PROTAC activity at CRBN/ERalpha in human MCF7 cells assessed as reduction in ERalpha protein level measured after 12 hrs by Western blot analysis; type: cell-based
Target sequence in this assay (P03372 whole entry): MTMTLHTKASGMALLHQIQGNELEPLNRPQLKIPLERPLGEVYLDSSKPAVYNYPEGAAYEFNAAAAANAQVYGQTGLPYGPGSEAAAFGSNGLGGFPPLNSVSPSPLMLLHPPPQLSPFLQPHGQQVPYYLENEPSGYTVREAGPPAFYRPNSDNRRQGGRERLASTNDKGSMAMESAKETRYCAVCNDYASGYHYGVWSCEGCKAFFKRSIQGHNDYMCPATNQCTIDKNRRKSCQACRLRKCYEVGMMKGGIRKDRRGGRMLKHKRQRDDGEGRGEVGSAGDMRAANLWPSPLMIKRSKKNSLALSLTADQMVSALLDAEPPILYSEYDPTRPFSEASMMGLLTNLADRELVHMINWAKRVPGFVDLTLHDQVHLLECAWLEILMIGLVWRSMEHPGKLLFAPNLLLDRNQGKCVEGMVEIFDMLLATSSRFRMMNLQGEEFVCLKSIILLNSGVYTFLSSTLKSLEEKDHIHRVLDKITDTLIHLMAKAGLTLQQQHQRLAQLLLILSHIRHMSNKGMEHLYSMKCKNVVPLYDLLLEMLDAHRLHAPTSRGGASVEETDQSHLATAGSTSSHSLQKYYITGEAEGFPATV
Target sequence in this assay (Q96SW2 whole entry): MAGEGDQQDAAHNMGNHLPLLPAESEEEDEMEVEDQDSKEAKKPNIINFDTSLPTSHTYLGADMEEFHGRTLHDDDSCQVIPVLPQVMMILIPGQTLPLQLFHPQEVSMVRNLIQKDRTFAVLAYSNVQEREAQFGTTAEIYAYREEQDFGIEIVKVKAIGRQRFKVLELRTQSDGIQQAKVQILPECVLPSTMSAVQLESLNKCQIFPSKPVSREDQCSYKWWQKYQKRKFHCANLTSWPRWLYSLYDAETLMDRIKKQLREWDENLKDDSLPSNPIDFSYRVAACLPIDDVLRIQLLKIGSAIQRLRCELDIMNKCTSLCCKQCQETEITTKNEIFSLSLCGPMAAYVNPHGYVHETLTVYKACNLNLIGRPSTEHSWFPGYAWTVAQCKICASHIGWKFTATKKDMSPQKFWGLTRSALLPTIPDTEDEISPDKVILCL

[2] = Drug concentration in female Sprague-Dawley rat plasma at 3 mg/kg, po measured at 24 hrs by LC-MS analysis; type: ADME, organism-based
[3] = Drug concentration in female Sprague-Dawley rat plasma at 3 mg/kg, po measured at 3 hrs by LC-MS analysis; type: ADME, organism-based
[4] = Drug concentration in female Sprague-Dawley rat plasma at 3 mg/kg, po measured at 1 hr by LC-MS analysis; type: ADME, organism-based
[5] = molecular target: T1, Protein cereblon/Estrogen receptor; test: PROTAC activity at CRBN/ERalpha in human MCF7 cells assessed as reduction in ERalpha protein level measured after 12 hrs by Western blot analysis relative to control; type: cell-based
Target sequence in this assay (P03372 whole entry, looked up): as the sequence (P03372 whole entry) above
Target sequence in this assay (Q96SW2 whole entry, looked up): as the sequence (Q96SW2 whole entry) above

[6] = Drug concentration in female Sprague-Dawley rat plasma at 3 mg/kg, po measured at 6 hrs by LC-MS analysis; type: ADME, organism-based
T47D [7] = test: PROTAC activity at CRBN/ ERalpha D538G mutant in human T47D cells assessed as reduction in ERalpha protein level at 10 to 100 nM measured at 7 hrs by Western blot analysis; type: cell-based; set-up: scale not given: the % may be the effect or the level left; details: dose 10-100 nM
T47D [8] = test: PROTAC activity at CRBN/ ERalpha Y537S mutant in human T47D cells assessed as reduction in ERalpha protein level at 10 to 100 nM measured at 7 hrs by Western blot analysis; type: cell-based; set-up: scale not given: the % may be the effect or the level left; details: dose 10-100 nM
[9] = molecular target: T1, Protein cereblon/Estrogen receptor; test: PROTAC activity at CRBN/wild type ERalpha in human T47D cells assessed as reduction in ERalpha protein level at 10 to 100 nM measured at 7 hrs by Western blot analysis; type: cell-based; details: dose 10-100 nM
Target sequence in this assay (P03372 whole entry, looked up): as the sequence (P03372 whole entry) above
Target sequence in this assay (Q96SW2 whole entry, looked up): as the sequence (Q96SW2 whole entry) above

MCF7 = test: Antiproliferative activity against human MCF7 cells assessed as cell growth inhibition incubated for 4 days by crystal violet staining based assay; type: functional; details: time 4.0 day

Structure (SMILES)	DC50 [1]	Emax [5]	also measured
O=C1CC[C@H](N2Cc3c(ccc4c3OCC43CCN(CC(=O)N4CCC5(CC4)CN(c4ccc([C@@H]6c7ccc(O)cc7CC[C@@H]6c6ccccc6)cc4)C5)CC3)C2=O)C(=O)N1	0.253 nM	102%	concentration at 24 h [2]: < 5 ng/mL; concentration at 3 h [3]: 26 ng/mL; concentration at 1 h [4]: 32 ng/mL; concentration at 6 h [6]: 17 ng/mL
O=C1CC[C@H](N2Cc3c(ccc4c3OCC43CCN(C(=O)CN4CCC5(CCN(c6ccc([C@@H]7c8ccc(O)cc8CC[C@@H]7c7ccccc7)cc6)CC5)C4)CC3)C2=O)C(=O)N1	0.029 nM	107%	–
Oc1ccc2c(c1)CC[C@H](c1ccccc1)[C@@H]2c1ccc(OCCN2CCCC2)cc1	–	–	Activity (T47D [7]): inactive; Activity (T47D [8]): inactive; Activity [9]: inactive
O=C1CC[C@H](N2Cc3c(ccc4c3OCC43CCN(C(=O)CC4CCN(c5ccc([C@@H]6c7ccc(O)cc7CC[C@@H]6c6ccccc6)cc5)CC4)CC3)C2=O)C(=O)N1	0.025 nM	86%	–
O=C1CC[C@H](N2Cc3c(ccc4c3OCC43CCN(C(=O)CN4CCC5(CC4)CN(c4ccc([C@@H]6c7ccc(O)cc7CC[C@@H]6c6ccccc6)cc4)C5)CC3)C2=O)C(=O)N1	0.034 nM	96%	concentration at 24 h [2]: < 5 ng/mL; concentration at 3 h [3]: 13 ng/mL; concentration at 1 h [4]: 16 ng/mL; concentration at 6 h [6]: 9 ng/mL
O=C1CC[C@H](N2Cc3c(ccc4c3OCC43CCN(C(=O)CCCC4CCN(c5ccc([C@@H]6c7ccc(O)cc7CC[C@@H]6c6ccccc6)cc5)CC4)CC3)C2=O)C(=O)N1	0.079 nM	95%	–
O=C1CC[C@H](N2Cc3c(ccc4c3OCC43CCN(CC4CC5(CCN(c6ccc([C@@H]7c8ccc(O)cc8CC[C@@H]7c7ccccc7)cc6)CC5)C4)CC3)C2=O)C(=O)N1	0.147 nM	87%	–
O=C1CC[C@H](N2Cc3c(ccc4c3OCC43CCN(CCCCCC4CCN(c5ccc([C@@H]6c7ccc(O)cc7CC[C@@H]6c6ccccc6)cc5)CC4)CC3)C2=O)C(=O)N1	0.42 nM	105%	–
O=C1CC[C@H](N2Cc3c(ccc4c3OCC43CCN(CCCCC4CCN(c5ccc([C@@H]6c7ccc(O)cc7CC[C@@H]6c6ccccc6)cc5)CC4)CC3)C2=O)C(=O)N1	0.031 nM	105%	–
O=C1CC[C@H](N2Cc3c(ccc4c3OCC43CCN(C(=O)C4CCN(c5ccc([C@@H]6c7ccc(O)cc7CC[C@@H]6c6ccccc6)cc5)CC4)CC3)C2=O)C(=O)N1	0.028 nM	82%	–
O=C1CC[C@H](N2Cc3c(ccc4c3OCC43CCN(CC4CC5(C4)CN(c4ccc([C@@H]6c7ccc(O)cc7CC[C@@H]6c6ccccc6)cc4)C5)CC3)C2=O)C(=O)N1	0.156 nM	81%	–
O=C1CC[C@H](N2Cc3c(ccc4c3OCC43CCN(CCCC4CCN(c5ccc([C@@H]6c7ccc(O)cc7CC[C@@H]6c6ccccc6)cc5)CC4)CC3)C2=O)C(=O)N1	0.038 nM	98%	–
O=C1CC[C@H](N2Cc3c(ccc4c3OCC43CCN(CC(=O)N4CCC5(CCN(c6ccc([C@@H]7c8ccc(O)cc8CC[C@@H]7c7ccccc7)cc6)CC5)C4)CC3)C2=O)C(=O)N1	0.0419 nM	100%	–
CN(C)C[C@@H]1CCC2(CCN(c3ccc([C@@H]4c5ccc(O)cc5CC[C@@H]4c4ccccc4)cc3)CC2)OC1	–	–	Activity (T47D [7]): inactive; Activity (MCF7): Active; Activity (T47D [8]): inactive; Activity [9]: inactive
O=C1CC[C@H](N2Cc3c(ccc4c3OCC43CCN(CC4CCC5(CCN(c6ccc([C@@H]7c8ccc(O)cc8CC[C@@H]7c7ccccc7)cc6)CC5)C4)CC3)C2=O)C(=O)N1 (some centres not stated)	0.126 nM	92%	–
O=C1CC[C@H](N2Cc3c(ccc4c3OCC43CCN(CC4CCN(c5ccc([C@@H]6c7ccc(O)cc7CC[C@@H]6c6ccccc6)cc5)CC4)CC3)C2=O)C(=O)N1	–	37%	–
O=C1CC[C@H](N2Cc3c(ccc4c3OCC43CCN(CC4CCC5(CCN(c6ccc([C@@H]7c8ccc(O)cc8CC[C@@H]7c7ccccc7)cc6)CC5)OC4)CC3)C2=O)C(=O)N1 (some centres not stated)	0.139 nM	99%	–
O=C1CC[C@H](N2Cc3c(ccc4c3OCC43CCN(C(=O)CN4CCC5(CC4)CCN(c4ccc([C@@H]6c7ccc(O)cc7CC[C@@H]6c6ccccc6)cc4)CC5)CC3)C2=O)C(=O)N1	0.035 nM	103%	–

Structure (SMILES)	DC50 [1]	Emax [5]	also measured
O=C1CC[C@H](N2Cc3cc(N4CCN(CC5CCN(c6ccc([C@@H]7c8ccc(O)cc8CC[C@@H]7c7ccccc7)cc6)CC5)CC4)ccc3C2=O)C(=O)N1 [VEPDEGESTRANT]	–	–	Activity (T47D [7]): > 80%; Activity (T47D [8]): > 80%
O=C1CCC(N2Cc3c(ccc4c3OCC43CCN(CC4COC5(CCN(c6ccc([C@@H]7c8ccc(O)cc8CC[C@@H]7c7ccccc7)cc6)CC5)C4)CC3)C2=O)C(=O)N1 (some centres not stated)	0.041 nM	79%	–
O=C1CC[C@H](N2Cc3c(ccc4c3OCC43CCN(C(=O)CCC4CCN(c5ccc([C@@H]6c7ccc(O)cc7CC[C@@H]6c6ccccc6)cc5)CC4)CC3)C2=O)C(=O)N1	0.116 nM	89%	–
O=C1CC[C@H](N2Cc3c(ccc4c3OCC43CCN(CCC4CCN(c5ccc([C@@H]6c7ccc(O)cc7CC[C@@H]6c6ccccc6)cc5)CC4)CC3)C2=O)C(=O)N1	0.0043 nM	80%	–
O=C1CC[C@H](N2Cc3c(ccc4c3OCC43CCN(CC(=O)N4CCC5(CC4)CCN(c4ccc([C@@H]6c7ccc(O)cc7CC[C@@H]6c6ccccc6)cc4)CC5)CC3)C2=O)C(=O)N1	0.0363 nM	105%	–
CCNCCc1ccc(CN(CC)c2cc(OC)ccc2[C@@H]2CCc3cc(O)ccc3C2)cc1	–	–	Activity (T47D [7]): Active; Activity (T47D [8]): Active; Activity [9]: Active
O=C1CC[C@H](N2Cc3c(ccc4c3OCC43CCN(C(=O)CN4CCCC5(CCN(c6ccc([C@@H]7c8ccc(O)cc8CC[C@@H]7c7ccccc7)cc6)CC5)C4)CC3)C2=O)C(=O)N1	0.202 nM	95%	–
O=C1CC[C@H](N2Cc3c(ccc4c3OCC43CCN(CC4COC5(CCN(c6ccc([C@@H]7c8ccc(O)cc8CC[C@@H]7c7ccccc7)cc6)CC5)OC4)CC3)C2=O)C(=O)N1	0.167 nM	100%	–
O=C1CC[C@H](N2Cc3c(ccc4c3OCC43CCN(C(=O)CN4CC5(CCN(c6ccc([C@@H]7c8ccc(O)cc8CC[C@@H]7c7ccccc7)cc6)CC5)C4)CC3)C2=O)C(=O)N1	0.018 nM	106%	–
O=C1CC[C@H](N2Cc3c(ccc4c3OCC43CCN(C[C@H]4CCC5(CCN(c6ccc([C@@H]7c8ccc(O)cc8CC[C@@H]7c7ccccc7)cc6)CC5)OC4)CC3)C2=O)C(=O)N1	0.142 nM	100%	–
O=C1CC[C@H](N2Cc3c(ccc4c3OCC43CCN(CC4CCC5(CCN(c6ccc([C@@H]7c8ccc(O)cc8CC[C@@H]7c7ccccc7)cc6)CC5)O4)CC3)C2=O)C(=O)N1 (some centres not stated)	0.604 nM	86%	–
O=C1CC[C@H](N2Cc3c(ccc4c3OCC43CCN(CC4CCC5(CC4)CN(c4ccc([C@@H]6c7ccc(O)cc7CC[C@@H]6c6ccccc6)cc4)C5)CC3)C2=O)C(=O)N1	0.11 nM	95%	–
O=C1CC[C@H](N2Cc3c(ccc4c3OCC43CCN(CC4CC5(CCN(c6ccc([C@@H]7c8ccc(O)cc8CC[C@@H]7c7ccccc7)cc6)CC5)CO4)CC3)C2=O)C(=O)N1 (some centres not stated)	0.303 nM	94%	–
C[C@]12CC[C@@H]3c4ccc(O)cc4C[C@@H](CCCCCCCCC[S+]([O-])CCCC(F)(F)C(F)(F)F)[C@H]3[C@@H]1CC[C@@H]2O (some centres not stated)	–	100%	–
O=C1CC[C@H](N2Cc3c(ccc4c3OCC43CCN(C(=O)CN4CC5(C4)CN(c4ccc([C@@H]6c7ccc(O)cc7CC[C@@H]6c6ccccc6)cc4)C5)CC3)C2=O)C(=O)N1	0.011 nM	99%	–
O=C1CC[C@H](N2Cc3c(ccc4c3OCC43CCN(CC(=O)N4CC5(C4)CN(c4ccc([C@@H]6c7ccc(O)cc7CC[C@@H]6c6ccccc6)cc4)C5)CC3)C2=O)C(=O)N1	0.0142 nM	99%	–
O=C1CC[C@H](N2Cc3c(ccc4c3OCC43CCN(CC4CCC5(CC4)CCN(c4ccc([C@@H]6c7ccc(O)cc7CC[C@@H]6c6ccccc6)cc4)CC5)CC3)C2=O)C(=O)N1	0.337 nM	99%	–
O=C1CC[C@H](N2Cc3c(ccc4c3OCC43CCN(CC(=O)N4CCCC5(CCN(c6ccc([C@@H]7c8ccc(O)cc8CC[C@@H]7c7ccccc7)cc6)CC5)C4)CC3)C2=O)C(=O)N1	0.0288 nM	99%	–
